Laboratory results reported in patent US9907797B2, “Combination therapies for overcoming resistance to mitotic agents during chemotherapy” (EMORY UNIVERSITY, priority 2014, dated 2018).
Peptide text beside a SMILES is read from it. * marks the point of attachment. Cbz = O=C(OCc1ccccc1)*

Key:
Type in all cases: cell-based
[1] = target: T1, PARP1-CHFR interaction (Homo sapiens, UniProt Q96EP1); experiment: Glutathione affinity pull-down of GST tagged PARP1 with CHFR in HEK293 cells; conditions: 10 uM, 16 hours
T1 construct: expressed in transfected cells; CHFR endogenous
T1 sequence (Q96EP1 1-664): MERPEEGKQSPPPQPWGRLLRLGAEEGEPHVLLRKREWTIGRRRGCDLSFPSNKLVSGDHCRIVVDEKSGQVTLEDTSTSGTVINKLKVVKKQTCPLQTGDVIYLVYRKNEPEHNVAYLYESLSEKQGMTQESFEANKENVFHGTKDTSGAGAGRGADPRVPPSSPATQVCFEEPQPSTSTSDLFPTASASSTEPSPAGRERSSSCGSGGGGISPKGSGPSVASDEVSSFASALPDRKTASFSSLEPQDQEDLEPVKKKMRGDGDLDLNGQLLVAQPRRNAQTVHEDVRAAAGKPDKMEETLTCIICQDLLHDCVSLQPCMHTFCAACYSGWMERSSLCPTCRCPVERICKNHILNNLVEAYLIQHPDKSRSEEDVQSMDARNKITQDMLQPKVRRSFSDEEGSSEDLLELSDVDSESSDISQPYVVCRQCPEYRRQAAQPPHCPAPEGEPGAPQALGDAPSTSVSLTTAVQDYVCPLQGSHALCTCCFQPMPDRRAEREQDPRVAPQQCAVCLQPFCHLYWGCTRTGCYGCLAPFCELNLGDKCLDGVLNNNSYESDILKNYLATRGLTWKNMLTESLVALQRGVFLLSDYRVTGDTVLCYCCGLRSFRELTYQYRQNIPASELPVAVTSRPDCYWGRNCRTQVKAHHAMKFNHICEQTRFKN
Procedure: In an attempt to generate possible lead compounds for the pharmacologic inhibition of the CHFR-PARP1 interaction, a high throughput computational screen of 5,256,508 chemical structures in the MCULE database of purchasable compounds using the AutoDockVina algorithm against the published crystal structure of the CHFR-PBZ domain was performed. The 10 most promising ‘hits’ based on Autodock Vina docking scores (<−9.7) were selected for further characterization. Commercially available compounds were tested for their impact on nuclear CHFR levels (FIG. 3A). Several compounds, including ‘A2’, ‘A3’, ‘A4’ and ‘A6’ decreased CHFR levels assayed by western blotting of whole cell extracts. The impact of the above referenced compounds on the PARP1/CHFR interaction were evaluated. HEK293 cells were transfected with GST tagged PARP1 and the interaction with CHFR determined in pull down assays for those 4 compounds. […] In contrast to treatment with ABT-888, ‘A3’ completely disrupted the interaction between GST-tagged PARP-1 and CHFR (FIG. 3B). […] Since it is possible that the co-immunoprecipitation between PARP-1 and CHFR after ‘A3’ treatment was negative due to the fact that CHFR was degraded, the experiment was repeated after transfection with the Ring-domain deleted ΔR-CHFR construct, which maintained both stable CHFR and PARP1 levels even after treatment with ‘A3’. […]

[2] = system: A549, EKVX, H596, H522, Hop-62, H460 and H2023; experiment: Cytotoxicity assays with docetaxel and ABT-888 in seven lung cancer cell lines
Procedure: Hypothesizing that PARP-inhibition could induce synergistic cytotoxicity in CHFR expressing lung cancer cell lines, cytotoxicity assays were performed in seven lung cancer cell lines (A549, EKVX, H596, H522, Hop-62, H460 and H2023) using docetaxel and the PARP-inhibitor ABT-888 either alone or in combination.

[3] = system: CHFR; experiment: wt-CHFR and CHFR-PBZ* protein levels in transfected Calu-6 cells
Text: To determine if disruption of the CHFR-PARP1 interaction forces CHFR degradation by auto-ubiquitination and subsequent proteasomal degradation, wild-type and the CHFR-PBZ mutant were expressed in the presence and absence of the proteasome inhibitor MG-132 (FIG. 1H) or after the additional deletion of the RING domain (FIG. 1I) in Calu-6 cells.

[4] = system: Calu-6 NSCLC cells; experiment: XTT assay with docetaxel in transfected Calu-6 cells; conditions: docetaxel 72 hours, Calu-6 with wt-CHFR vs empty vector and CHFR-PBZ*, p<0.05
Procedure: The effect of Docetaxel after 72 hours was established by XTT assay.
In Hela cells, full length, but not PBZ-mutant CHFR has similar cell cycle effects. To determine the functional relevance of the PBZ domain on taxane resistance in NSCLC CHFR deficient CALU-6 cells were transfected with either with full-length CHFR (pDEST40-wt-CHFR) or PBZ mutant CHFR (pDEST40-CHFR-PBZ*).

[5] = system: A549 cells; experiment: XTT assays with docetaxel in A549 cells stably transfected with shRNAs
Procedure: (§1) The functional significance of the interaction between CHFR and PARP1 in antephase checkpoint control and taxane sensitivity was evaluated. HEK293 cells were transfected with a GST-tagged PARP1, synchronized with aphidocholin, and the interaction between GST-tagged PARP1 and CHFR was analyzed at various stages of the cell cycle (FIG. 2A, 2B). […] To determine the effect on taxane sensitivity, XTT assays were performed in A549 cells stably transfected with either shRNAs specifically targeting CHFR or PARP1 or control shRNAs (scrambled or luciferase targeting respectively).

[6] = system: CHFR-PARP1 interaction; experiment: Interaction between GST-tagged PARP1 and CHFR in synchronized cells; conditions: microtubular damage induced with docetaxel, G2/M phase
Procedure: as §1

SMILES: C[C@]1(c2nc3c(C(N)=O)cccc3[nH]2)CCCN1 [ABT-888]
- interaction between PARP1 and CHFR [1]: nor did it disrupt the interaction between CHFR and PARP-1
- cytostasis, docetaxel combined with ABT-888 ([2]; ABT-888 20 uM): did not lead to enhanced cytostasis
- synergy of docetaxel and ABT-888, cytotoxicity ([2]; seven lung cancer cell lines, alone or in combination): Synergy was not observed in any of the cell lines
- CHFR protein levels ([3]; Calu-6 cells, wt-CHFR or CHFR-PBZ*): did not result in altered CHFR protein levels

SMILES: CC(C)C[C@@H](C=O)NC(=O)[C@H](CC(C)C)NC(=O)[C@H](CC(C)C)NC(=O)OCc1ccccc1 [MG-132] (Cbz-Leu-Leu-Leu-aldehyde)
- CHFR-PBZ* protein levels ([3]; Calu-6 cells stably transfected with CHFR-PBZ*, proteasomal inhibition): increases CHFR-PBZ* protein levels

SMILES: CC(=O)O[C@@]12CO[C@@H]1C[C@H](O)[C@@]1(C)C(=O)[C@H](O)C3=C(C)[C@@H](OC(=O)[C@H](O)[C@@H](NC(=O)OC(C)(C)C)c4ccccc4)C[C@@](O)([C@@H](OC(=O)c4ccccc4)[C@H]21)C3(C)C [docetaxel]
- taxane resistance (XTT) [4]: Stable transfection of wt-CHFR increases taxane resistance
- sensitivity to docetaxel (XTT) ([5]; CHFR-deficient A549 cells relative to scrambled control): increased sensitivity to docetaxel
- sensitivity to docetaxel (XTT) ([5]; PARP1 deficient A549 cells relative to control shRNA): also showed increased sensitivity to docetaxel
- interaction between GST-tagged PARP1 and CHFR [6]: further enhances this interaction
